Reference: patent publication US5756121A, “Antibiotic formulation and use for drug resistant infections” (NeXstar Pharmaceuticals, Inc., priority 1995, dated 1998)
“And” between values parts separate entries of the source, which are not always exact repeats. Equal values may be shown once. “Also recorded” adds a separate entry of the source. Read-outs that look alike come from different tables or passages of the source.

Test system: M. tuberculosis, drug resistant strain Vertulla
Format: cell-based, Mycobacterium tuberculosis (in human macrophages)
Settings: for CFU: duplicate values

Question: With `NCC[C@H](O)C(=O)N[C@@H]1C[C@H](N)[C@@H](O[C@H]2O[C@H](CN)[C@@H](O)[C@H](O)[C@H]2O)[C@H](O)[C@H]1O[C@H]1O[C@H](CO)[C@@H](O)[C@H](N)[C@H]1O` [amikacin] as the molecule, how does the CFU (4 μg/ml, day 4) read?
Answer: 9.3 1 × 10^3 cfu per monolayer and 8.0 1 × 10^3 cfu per monolayer

Question: What about the CFU (8 μg/ml, day 4) of the same molecule?
Answer: 5 1 × 10^3 cfu per monolayer and 4 1 × 10^3 cfu per monolayer

Question: And the CFU (8 μg/ml, day 7)?
Answer: 4.5 1 × 10^3 cfu per monolayer and 6.2 1 × 10^3 cfu per monolayer

Question: What about the CFU (16 μg/ml, day 4) of the same molecule?
Answer: 5 1 × 10^3 cfu per monolayer and 5.4 1 × 10^3 cfu per monolayer

Question: What about the CFU (16 μg/ml, day 7) of the same molecule?
Answer: 3.7 1 × 10^3 cfu per monolayer and 4.1 1 × 10^3 cfu per monolayer

Question: And the “inhibition / killing of drug resistant bacteria (in words)” value (4, 8 and 16 μg/ml, killing = fewer cfu than previous time point, listed as free amikacin)?
Answer: at the most, inhibition; also recorded: only inhibit the growth of the infection without killing
